Assay results published in patent US12441708B2, “Cereblon ligands and bifunctional compounds comprising the same” (Arvinas Operations, Inc., priority 2017, dated 2025).
Like-named read-outs stand apart in the source and are kept apart here.

Experiments:
[1] = target: estrogen receptor-alpha (ERα) (Homo sapiens (Human), UniProt P03372); experiment: Estrogen receptor-alpha (ERα) degradation assay in MCF7 cells (In-Cell Western / western blot); type: cell-based; settings: % degraded, read-out: ER Degradation Dmax
estrogen receptor-alpha (ERα), sequence (P03372 whole entry): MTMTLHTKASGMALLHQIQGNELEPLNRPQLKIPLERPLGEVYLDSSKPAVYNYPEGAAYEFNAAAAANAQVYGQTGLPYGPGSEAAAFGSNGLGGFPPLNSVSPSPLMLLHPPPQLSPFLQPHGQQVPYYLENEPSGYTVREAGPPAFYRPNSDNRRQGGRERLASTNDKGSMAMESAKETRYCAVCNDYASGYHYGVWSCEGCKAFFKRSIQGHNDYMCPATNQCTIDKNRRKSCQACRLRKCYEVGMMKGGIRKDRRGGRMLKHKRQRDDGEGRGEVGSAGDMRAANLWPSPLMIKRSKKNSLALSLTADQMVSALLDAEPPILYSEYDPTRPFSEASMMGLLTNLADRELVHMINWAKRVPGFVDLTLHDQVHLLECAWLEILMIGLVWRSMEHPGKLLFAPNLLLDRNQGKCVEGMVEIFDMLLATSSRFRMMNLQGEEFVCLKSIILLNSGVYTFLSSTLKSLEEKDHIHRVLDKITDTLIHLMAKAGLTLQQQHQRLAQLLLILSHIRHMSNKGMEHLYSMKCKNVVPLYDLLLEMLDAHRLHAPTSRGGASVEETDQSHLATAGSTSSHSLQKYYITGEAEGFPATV
Description: 2. Estrogen Receptor-Alpha (ERα) Degradation Assay in MCF-7 Cells Using Western Blot Method for Table 5
The exemplary novel ERα degraders were assessed for their activity in degrading ERα in MCF-7 cells via western blot. The assay was carried out in the presence of 10% FBS or high percentage of human or mouse serum. Protocols of the western blot assay are described below.
MCF7 cells were grown in DMEM/F12 with 10% FBS and seeded at 24,000 cells per well in 100 μl into 96-well clear tissue culture plates. The following day, the cells were treated with PROTACs in a […] concentration curve with 100 nM being the top concentration and serial dilutions to make the other concentrations (30 nM, 10 nM. 3 nM, 1 nM, and 0.3 nM). At all concentrations, 0.01% DMSO is the final concentration in the well. The following day, the plates are aspirated, washed with 50 μl of cold PBS. The cells are lysed with 50 μl/well 4° C. Cell Lysis Buffer (Catalog #9803; Cell Signaling Technology, Danvers, MA) (20 mM Tris-HCL (pH 7.5), 150 mM NaCl, 1 mM Na2EDTA, 1 mM EGTA, 1% Triton, 2.5 mM sodium pyrophosphate, 1 mM B-glycerophosphate, 1 mM sodium vanadate, 1 μg/ml leupeptin). Lysates were clarified at 16,000× g for 10 minutes, and 2 μg of protein was subjected to SDS-PAGE analysis and followed by immunoblotting according to standard protocols. The antibodies used were ERα (Cell Signaling, Technologies Catalog #8644), and Tubulin (Sigma Catalog #T9026; St. Louis, MO). Detection reagents were Clarity Western ECL substrate (Bio-Rad Catalog 4170-5060; Hercules, CA).
Alternatively, MCF7 cells were grown in DMEM/F12 with 10% FBS and seeded at 24,000 cells per well in 500 μl in 24-well clear tissue culture plates. The following day, the cells were treated with PROTACs in a 5-point concentration curve (100 nM, 33 nM, 11 nM, 3.7 nM, and 1.2 nM) in the presence of 0.01% DMSO. After 72 hours, the wells are aspirated and washed with 500 μl of PBS. The cells are lysed with 100 μl/well 4° C. Cell Lysis Buffer (Catalog #9803; Cell Signaling Technology, Danvers, MA) (20 mM Tris-HCL (pH 7.5), 150 mM NaCl, 1 mM Na2EDTA, 1 mM EGTA, 1% Triton, 2.5 mM sodium pyrophosphate, 1 mM B-glycerophosphate, 1 mM sodium vanadate, 1 ug/ml leupeptin). Lysates were clarified at 16,000× g for 10 minutes, and 2 μg of protein was subjected to SDS-PAGE analysis and followed by immunoblotting according to standard protocols. The antibodies used were ERα (Cell Signaling Technologies Catalog #8644), and Tubulin (Sigma Catalog #T9026; St. Louis, MO). Detection reagents were Clarity Western ECL substrate (Bio-Rad Catalog 4170-5060; Hercules, CA).
3. Estrogen receptor-alpha (ERα) degradation assay using In-Cell Western™ Assay for Table 5
Degradation of ERα by claimed compounds were determined in MCF7 cells using an In-Cell Western™ assay. Briefly, MCF7 cells were plated in 96-well plates (2000 cells per well in 100 μl media) and incubated at 37° C. under an atmosphere of 5% CO2 in a humidified incubator overnight. One-hundred (100) μl of media containing test compound (at 2× concentration) was added to the appropriate wells to provide 11 serially decreasing concentrations (top final concentration, 1 μM then 3-fold less for the next 10 concentrations); a vehicle control (DMSO) was also added for each compound. For each experiment, all compounds were assayed in duplicate plates. Cells were then incubated for 3 or 5 days in the above-mentioned environment. The assay was terminated by removal of media, a single wash with ice-cold PBS and the addition of […] paraformaldehyde (PFA: 4% in PBS). After 15 minutes in PFA at room temperature, the cells were permeabilized in Tris-phosphate-buffered saline with Tween (0.1%) (TBST) supplemented with Triton X-100 (0.5%) for 15 minutes. Cells were then blocked in BSA (TBST with BSA, 3%) for one hour. […] The cells were incubated overnight at 4° C. […]

estrogen receptor = experiment: ERE luciferase assay in T47D-KBluc cells; type: cell-based; settings: Homo sapiens, 24 hours, read-out: ER Target Engagement IC50
Description: 1. ERE Luciferase Assay for Compounds in Table 2
T47D-1(Bluc cells (ATCC® ECRL 2 65, T47D human breast cancer cells stably transfected with estrogen responsive element/promoter/luciferase reporter gene) were seeded into 96-well white opaque plates in IR: PM growth medium supplemented with 10% fetal bovine serum (FBS) and allowed to adhere overnight in a 37° C. humidified incubator. The following day, cells were treated with PROTACs in a 12-point concentration curve (top final concentration of 300 nM with subsequent concentrations being 3-fold less with […] being the lowest concentration in the assay). Each PROTAC was tested independently in two experiments on 96-well plates. After 24 hours, media was removed and lysis buffer was added to the wells. Following lysis, Bright-Glo™ Luciferase Assay Substrate (Promega, Madison WI) was added and the luciferase activity was measured using a Cytation 3 plate reader (BioTek™, Winooski, VT). Each compound was assayed in duplicate and the activity was calculated as […] using GraphPad Prism software (San Diego, CA).

Dmax ([1]; 3 day incubation) [%]	IC50 (estrogen receptor) [nM]	Dmax ([1]; 5 day incubation) [%]	SMILES
≤ 50	10 to 100		O=C1CCC(n2ncc(Oc3ccc(O[C@H]4CCN(CCOc5ccc([C@H]6c7ccc(O)cc7CC[C@H]6c6ccc(F)cc6)cc5)C4)nc3)cc2=O)C(=O)N1 (mixture of isomers) [PROTAC-93, rac-3-(4-((6-(((R)-1-(2-(4-((1R,2S)-2-(4-fluorophenyl)-6-hydroxy-1,2,3,4-tetrahydronaphthalen-1-yl)phenoxy)ethyl)pyrrolidin-3-yl)oxy)pyridin-3-yl)oxy)-6-oxopyridazin-1(6H)-yl)piperidine-2,6-dione]
≤ 50	< 1		O=C1CCC(n2ncc(Oc3ccc(O[C@H]4CCN(CCOc5ccc([C@@H]6c7ccc(O)cc7CC[C@@H]6c6ccc(F)cc6)cc5)C4)nc3)cc2=O)C(=O)N1 (mixture of isomers) [PROTAC-94, rac-3-(4-((6-(((R)-1-(2-(4-((1S,2R)-2-(4-fluorophenyl)-6-hydroxy-1,2,3,4-tetrahydronaphthalen-1-yl)phenoxy)ethyl)pyrrolidin-3-yl)oxy)pyridin-3-yl)oxy)-6-oxopyridazin-1(6H)-yl)piperidine-2,6-dione]
≤ 50	10 to 100		O=C1CCC(n2ncc(Oc3ccc(O[C@@H]4CCN(CCOc5ccc([C@H]6c7ccc(O)cc7CC[C@H]6c6ccc(F)cc6)cc5)C4)nc3)cc2=O)C(=O)N1 (mixture of isomers) [PROTAC-97, rac-3-(4-((6-(((R)-1-(2-(4-((1S,2R)-2-(4-fluorophenyl)-6-hydroxy-1,2,3,4-tetrahydronaphthalen-1-yl)phenoxy)ethyl)pyrrolidin-3-yl)oxy)pyridin-3-yl)oxy)-6-oxopyridazin-1(6H)-yl)piperidine-2,6-dione]
	1 to 10	> 75	CN(C(=O)c1ccc(N2CCN(CCCCCOc3ccc([C@@H]4c5ccc(O)cc5CC[C@@H]4c4ccccc4)cc3)CC2)cc1)C1CCC(=O)NC1=O (mixture of isomers) [PROTAC-90, rac-N-(2,6-dioxopiperidin-3-yl)-4-(4-(5-(4-((1R,2S)-6-hydroxy-2-phenyl-1,2,3,4-tetrahydronaphthalen-1-yl)phenoxy)pentyl)piperazin-1-yl)-N-methylbenzamide]
	1 to 10	> 75	O=C1CCC(NC(=O)c2ccc(N3CCN(CCCCCOc4ccc([C@@H]5c6ccc(O)cc6CC[C@@H]5c5ccccc5)cc4)CC3)cn2)C(=O)N1 (mixture of isomers) [PROTAC-91, rac-N-(2,6-dioxopiperidin-3-yl)-5-(4-(5-(4-((1R,2S)-6-hydroxy-2-phenyl-1,2,3,4-tetrahydronaphthalen-1-yl)phenoxy)pentyl)piperazin-1-yl)picolinamide]
≤ 50	≥ 100		O=C1CCC(n2ncc(Oc3ccc(N4CCN(CCOc5ccc([C@H]6c7ccc(O)cc7CC[C@H]6c6ccc(F)cc6)cc5)CC4)nc3)cc2=O)C(=O)N1 (mixture of isomers) [PROTAC-95, rac-3-(4-((6-(4-(2-(4-((1R,2S)-2-(4-fluorophenyl)-6-hydroxy-1,2,3,4-tetrahydronaphthalen-1-yl)phenoxy)ethyl)piperazin-1-yl)pyridin-3-yl)oxy)-6-oxopyridazin-1(6H)-yl)piperidine-2,6-dione]
≤ 50	< 1		O=C1CCC(n2ncc(Oc3ccc(N4CCN(CCOc5ccc([C@@H]6c7ccc(O)cc7CC[C@@H]6c6ccc(F)cc6)cc5)CC4)nc3)cc2=O)C(=O)N1 (mixture of isomers) [PROTAC-96, rac-3-(4-((6-(4-(2-(4-((1R,2S)-2-(4-fluoro-phenyl)-6-hydroxy-1,2,3,4-tetrahydro-naphthalen-1-yl)phenoxy)ethyl)piperazin-1-yl)pyridin-3-yl)oxy)-6-oxopyridazin-1(6H)-yl)piperidine-2,6-dione]
	1 to 10	≤ 50	O=C1CCC(n2ncc(Oc3ccc(CCCCOc4ccc([C@@H]5c6ccc(O)cc6CC[C@@H]5c5ccc(F)cc5)cc4)nc3)cc2=O)C(=O)N1 (mixture of isomers) [PROTAC-98, rac-3-(4-((6-(4-(4-((1R,2S)-2-(4-fluorophenyl)-6-hydroxy-1,2,3,4-tetrahydro-naphthalen-1-yl)phenoxy)butyl)pyridin-3-yl)oxy)-6-oxopyridazin-1(6H)-yl)piperidine-2,6-dione]
	10 to 100	≤ 50	O=C1CCC(n2ncc(Oc3ccc(CCCCCOc4ccc([C@@H]5c6ccc(O)cc6CC[C@@H]5c5ccc(F)cc5)cc4)nc3)cc2=O)C(=O)N1 (mixture of isomers) [PROTAC-99, rac-3-(4-((6-(5-(4-((1R,2S)-2-(4-fluorophenyl)-6-hydroxy-1,2,3,4-tetrahydro-naphthalen-1-yl)phenoxy)pentyl)pyridin-3-yl)oxy)-6-oxopyridazin-1(6H)-yl)piperidine-2,6-dione]
	1 to 10	50 to 75	O=C1CCC(n2ncc(N3CCN(CCCCCOc4ccc([C@@H]5c6ccc(O)cc6CC[C@@H]5c5ccccc5)cc4)CC3)cc2=O)C(=O)N1 (mixture of isomers) [PROTAC-100, rac-3-(4-(4-(5-(4-((1R,2S)-6-hydroxy-2-phenyl-1,2,3,4-tetrahydronaphthalen-1-yl)phenoxy)pentyl)piperazin-1-yl)-6-oxopyridazin-1(6H)-yl)piperidine-2,6-dione]
	1 to 10	50 to 75	O=C1CCC(n2cnc(N3CCN(CCCCCOc4ccc([C@@H]5c6ccc(O)cc6CC[C@@H]5c5ccccc5)cc4)CC3)cc2=O)C(=O)N1 (mixture of isomers) [PROTAC-101, rac-3-(4-(4-(5-(4-((1R,2S)-6-hydroxy-2-phenyl-1,2,3,4-tetrahydronaphthalen-1-yl)phenoxy)pentyl)piperazin-1-yl)-6-oxopyrimidin-1(6H)-yl)piperidine-2,6-dione]
	< 1	50 to 75	O=C1CCC(n2cc(-c3ccc(N4CCN(CCCOc5ccc([C@@H]6c7ccc(O)cc7CC[C@@H]6c6ccccc6)cc5)CC4)cc3)cn2)C(=O)N1 (mixture of isomers) [PROTAC-110, rac-3-(4-(4-(4-(3-(4-((1R,2S)-6-hydroxy-2-phenyl-1,2,3,4-tetrahydronaphthalen-1-yl)phenoxy)propyl)piperazin-1-yl)phenyl)-1H-pyrazol-1-yl) piperidine-2,6-dione]
	< 1	≤ 50	O=C1CCC(n2cc(-c3ccc(N4CCN(CCCOc5ccc([C@@H]6c7ccc(O)cc7CC[C@@H]6c6ccccc6)cc5)CC4)nc3)cn2)C(=O)N1 (mixture of isomers) [PROTAC-111, rac-3-(4-(6-(4-(3-(4-((1R,2S)-6-hydroxy-2-phenyl-1,2,3,4-tetrahydronaphthalen-1-yl)phenoxy)propyl)piperazin-1-yl)pyridin-3-yl)-1H-pyrazol-1-yl) piperidine-2,6-dione]
